Holding throughout (format): cell-based
In assay [1] the test system is T-Rex 293 cells having increased expression of estrogen receptor alpha protein. The assay can be described thus: Cellular growth inhibition assay, T-Rex 293 cells, (+) doxycycline. Conditions: T-REx-293, 72 h, Table 7-A; T-Rex 293 cells with doxycycline (increased ERα expression); 72 hours; CellTiter-Glo; read-out: (+) Dox GI50. In outline: (§1)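 ERα overexpression was switched on by 3 ng/mL doxycycline in a stably transfected T-Rex 293 clone, while uninduced cells served as the comparison line. Proliferation over 72 h of compound treatment was assessed by ATP luminescence, and GI50 values came from four-parameter curves.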
Background: In ATP-based viability assays light output follows the ATP content of the culture.

Assay [2] deals with MCF7 cells (ATCC #HTB-22). In words: Cellular growth inhibition assay, MCF7 cells purchased from ATCC. Conditions: Homo sapiens, MCF7, 144 h, Table 8-A; MCF7 cells purchased from ATCC; six days; CellTiter-Glo; read-out: GI50. In outline:
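MCF7 cells in RPMI 1640 with 10% FBS and 0.2 U/ml insulin, seeded at 1,500 cells/well (ATCC) or 225 cells/well (ECACC). Compounds added 24 h later, then 6 days at 37° C. Viability by CellTiter-Glo 2.0 luminescence. GI50 from four-parameter fit.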

For assay [3], the system named is T-Rex 293 cells lacking increased expression of estrogen receptor alpha protein. The assay can be described thus: Cellular growth inhibition assay, T-Rex 293 cells, (−) doxycycline. Conditions: T-REx-293, 72 h, Table 7-A; T-Rex 293 cells without doxycycline (lacking increased ERα expression); 72 hours; CellTiter-Glo; read-out: (−) Dox GI50. In outline:
as §1

We go through 27 molecules from patent US12558428B2, “Heterobifunctional compounds and their use in treating disease” (Halda Therapeutics OpCo, Inc., priority 2024, dated 2026).

One may read the GI50 as the concentration that inhibits growth by half. As to `Cc1sc2c(c1C)C(c1ccc(N3CC4(CCC(CN5CCN(c6ccc([C@@H]7c8ccc(O)cc8CC[C@@H]7c7ccccc7)cc6)CC5)CC4)C3)cc1)=N[C@@H](C)c1nnc(C)n1-2` [III-230], the GI50 in assay [1] was less than 0.05 µM; in assay [2], 0.05 to 0.5 µM; in assay [3], greater than 2.5 µM.
Turning to `Cc1sc2c(c1C)C(c1ccc(N3CCN(CC4CCN(c5ccc([C@@H]6c7ccc(O)cc7CC[C@@H]6c6ccccc6)cc5)CC4)CC3)cc1)=N[C@H](Cc1nccs1)c1nnc(C)n1-2` [III-231], the figures for the GI50 in assay [1], in assay [2] and in assay [3] were greater than 2.5 µM, 0.5 to 2.5 µM and greater than 2.5 µM, respectively.
Consider `Cc1sc2c(c1C)C(c1ccc(N3CCN(CC4CCN(c5ccc([C@@H]6c7ccc(O)cc7CC[C@@H]6c6ccccc6)cc5)CC4)CC3)cc1)=N[C@@H](Cc1nccs1)c1nnc(C)n1-2` [III-232], for which the values for the GI50 in assay [1], in assay [2] and in assay [3] were less than 0.05 µM, less than 0.05 µM and greater than 2.5 µM, respectively.
For the molecule `Cc1sc2c(c1C)C(c1ccc(N3CC(C[C@H]4CC[C@H](CN5CC(c6ccc([C@@H]7c8ccc(O)cc8CC[C@@H]7c7ccccc7)cc6)C5)CC4)C3)cc1)=N[C@@H](C)c1nnc(C)n1-2` [III-233], the GI50 in assay [1] is less than 0.05 µM; in assay [2], 0.05 to 0.5 µM; in assay [3], 0.5 to 2.5 µM.
For `Cc1sc2c(c1C)C(c1ccc(C3CN(C[C@H]4CC[C@H](CN5CC(c6ccc([C@@H]7c8ccc(O)cc8CC[C@@H]7c7ccccc7)cc6)C5)CC4)C3)cc1)=N[C@@H](C)c1nnc(C)n1-2` [III-234] the same measures were less than 0.05 µM, 0.05 to 0.5 µM and 0.5 to 2.5 µM.
As for `Cc1sc2c(c1C)C(c1ccc(N3CC(CC4(O)CCN(CC5CN(c6ccc([C@@H]7c8ccc(O)cc8CC[C@@H]7c7ccccc7)cc6)C5)CC4)C3)cc1)=N[C@@H](C)c1nnc(C)n1-2` [III-235], the GI50 in assay [1] is less than 0.05 µM; in assay [2], less than 0.05 µM; in assay [3] it was 0.5 to 2.5 µM.
Take `Cc1sc2c(c1C)C(c1ccc(N3CCC(O)(CN4CCN(c5cc(F)c([C@@H]6c7ccc(O)cc7CC[C@@H]6c6ccc(F)cc6)c(F)c5)CC4)CC3)cc1)=N[C@@H](C)c1nnc(C)n1-2` [III-236]: the GI50 in assay [1] is less than 0.05 µM; in assay [2], less than 0.05 µM; in assay [3] it was 0.5 to 2.5 µM.
With `Cc1sc2c(c1C)C(c1ccc(N3CCC(O)(CN4CCN(c5cc(F)c([C@H]6c7ccc(O)cc7CC[C@H]6c6ccc(F)cc6)c(F)c5)CC4)CC3)cc1)=N[C@@H](C)c1nnc(C)n1-2` [III-237], the values for the GI50 in assay [1], in assay [2] and in assay [3] were 0.05 to 0.5 µM, 0.05 to 0.5 µM and 0.5 to 2.5 µM, respectively.
As to `Cc1sc2c(c1C)C(c1ccc(N3CC(CC4(O)CCN(CC5CN(c6ccc([C@H]7c8ccc(O)cc8CC[C@H]7c7ccc(F)cc7)cc6)C5)CC4)C3)cc1)=N[C@@H](C)c1nnc(C)n1-2` [III-238], the results for the GI50 in assay [1], in assay [2] and in assay [3] were 0.05 to 0.5 µM, 0.05 to 0.5 µM and 0.5 to 2.5 µM, respectively.
As to `Cc1sc2c(c1C)C(c1ccc(N3CC(CC4(O)CCN(CC5CN(c6ccc([C@@H]7c8ccc(O)cc8CC[C@@H]7c7ccc(F)cc7)cc6)C5)CC4)C3)cc1)=N[C@@H](C)c1nnc(C)n1-2` [III-239], the GI50 in assay [1] is less than 0.05 µM; in assay [2], less than 0.05 µM; in assay [3] it was 0.05 to 0.5 µM.
As to `Cc1sc2c(c1C)C(c1ccc(N3CC(CC4(O)CN(CC5CN(c6ccc([C@@H]7c8ccc(O)cc8CC[C@@H]7c7ccccc7)cc6)C5)C4)C3)cc1)=NC(C)c1nnc(C)n1-2` (stereo partly drawn) [III-240], the results for the GI50 in assay [1], in assay [2] and in assay [3] were less than 0.05 µM, less than 0.05 µM and 0.05 to 0.5 µM, respectively.
With `Cc1sc2c(c1C)C(c1ccc(N3CC(O)(CC4CN(CC5CN(c6ccc([C@@H]7c8ccc(O)cc8CC[C@@H]7c7ccccc7)cc6)C5)C4)C3)cc1)=N[C@@H](C)c1nnc(C)n1-2` [III-241], the GI50 in assay [1] is less than 0.05 µM; in assay [2], less than 0.05 µM; in assay [3], 0.05 to 0.5 µM.
With `Cc1sc2c(c1C)C(c1ccc(N3CC4(CC(CN5CCC(c6ccc([C@@H]7c8ccc(O)cc8CC[C@@H]7c7ccccc7)cc6)CC5)C4)C3)cc1)=N[C@@H](C)c1nnc(C)n1-2` [III-242], the GI50 in assay [1] is less than 0.05 µM; in assay [2], less than 0.05 µM; in assay [3], 0.5 to 2.5 µM.
Take `Cc1sc2c(c1C)C(c1ccc(N3CC4(CC(CN5CCN(c6ccc([C@@H]7c8ccc(O)cc8CC[C@@H]7c7ccccc7)cc6)CC5)C4)C3)cc1)=N[C@@H](C)c1nnc(C)n1-2` [III-243]: the GI50 in assay [1] was less than 0.05 µM; in assay [2] it was less than 0.05 µM; in assay [3] it was 0.5 to 2.5 µM.
Regarding `Cc1sc2c(c1C)C(c1ccc(N3CCC(O)(CN4CCN(c5cc(F)c([C@@H]6c7ccc(O)cc7CC[C@@H]6c6ccccc6)cc5F)CC4)CC3)cc1)=N[C@@H](C)c1nnc(C)n1-2` [III-246], the GI50 in assay [1] was less than 0.05 µM; in assay [2] it was less than 0.05 µM; in assay [3], 0.5 to 2.5 µM.
Consider `Cc1sc2c(c1C)C(c1ccc(N3CCC(O)(CN4CCN(c5cc(F)c([C@H]6c7ccc(O)cc7CC[C@H]6c6ccccc6)cc5F)CC4)CC3)cc1)=N[C@@H](C)c1nnc(C)n1-2` [III-247], for which the results for the GI50 in assay [1], in assay [2] and in assay [3] were less than 0.05 µM, 0.05 to 0.5 µM and 0.05 to 0.5 µM, respectively.
For the molecule `Cc1sc2c(c1C)C(c1ccc(N3CCC(O)(CN4CCN(c5ccc([C@@H]6c7ccc(O)cc7CC[C@@H]6c6ccc(F)cc6)c(F)c5)CC4)CC3)cc1)=N[C@@H](C)c1nnc(C)n1-2` [III-248], the GI50 in assay [1] was less than 0.05 µM; in assay [2], less than 0.05 µM; in assay [3], 0.5 to 2.5 µM.
Regarding `Cc1sc2c(c1C)C(c1ccc(N3CCC(O)(CN4CCN(c5ccc([C@H]6c7ccc(O)cc7CC[C@H]6c6ccc(F)cc6)c(F)c5)CC4)CC3)cc1)=N[C@@H](C)c1nnc(C)n1-2` [III-249], the GI50 is 0.05 to 0.5 µM in assay [1], 0.05 to 0.5 µM in assay [2] and 0.5 to 2.5 µM in assay [3].
As to `Cc1sc2c(c1C)C(c1ccc(N3CCC(O)(CN4CCN(c5ccc([C@H]6c7ccc(O)cc7CC[C@H]6c6ccc(F)cc6)cc5F)CC4)CC3)cc1)=N[C@@H](C)c1nnc(C)n1-2` [III-250, 4-((4-(2-fluoro-4-((1S,2R)-2-(4-fluorophenyl)-6-hydroxy-1,2,3,4-tetrahydronaphthalen-1-yl)phenyl)piperazin-1-yl)methyl)-1-(4-((S)-2,3,6,9-tetramethyl-6H-thieno[3,2-f][1,2,4]triazolo[4,3-a][1,4]diazepin-4-yl)phenyl)piperidin-4-ol], the GI50 in assay [1], in assay [2] and in assay [3] was 0.05 to 0.5 µM throughout.
For `Cc1sc2c(c1C)C(c1ccc(N3CCC(O)(CN4CCN(c5ccc([C@@H]6c7ccc(O)cc7CC[C@@H]6c6ccc(F)cc6)cc5F)CC4)CC3)cc1)=N[C@@H](C)c1nnc(C)n1-2` [III-251, 4-((4-(2-fluoro-4-((1R,2S)-2-(4-fluorophenyl)-6-hydroxy-1,2,3,4-tetrahydronaphthalen-1-yl)phenyl)piperazin-1-yl)methyl)-1-(4-((S)-2,3,6,9-tetramethyl-6H-thieno[3,2-f][1,2,4]triazolo[4,3-a][1,4]diazepin-4-yl)phenyl)piperidin-4-ol], the results for the GI50 in assay [1], in assay [2] and in assay [3] were less than 0.05 µM, less than 0.05 µM and 0.5 to 2.5 µM, respectively.
Turning to `Cc1sc2c(c1C)C(c1ccc(N3CC4(CCC(CN5CCC(c6ccc([C@H]7c8ccc(O)cc8CC[C@H]7c7ccc(F)cc7)cc6)CC5)CC4)C3)cc1)=N[C@@H](C)c1nnc(C)n1-2` [III-252], the GI50 is 0.05 to 0.5 µM in assay [1], 0.5 to 2.5 µM in assay [2] and 0.5 to 2.5 µM in assay [3].
As to `Cc1sc2c(c1C)C(c1ccc(N3CC4(CCC(CN5CCC(c6ccc([C@@H]7c8ccc(O)cc8CC[C@@H]7c7ccc(F)cc7)cc6)CC5)CC4)C3)cc1)=N[C@@H](C)c1nnc(C)n1-2` [III-253], the GI50 was less than 0.05 µM in assay [1], less than 0.05 µM in assay [2] and 0.5 to 2.5 µM in assay [3].
For the molecule `COc1cc([C@H]2c3ccc(O)cc3CC[C@H]2c2ccc(F)cc2)ccc1N1CCN(CC2(O)CCN(c3ccc(C4=N[C@@H](C)c5nnc(C)n5-c5sc(C)c(C)c54)cc3)CC2)CC1` [III-254], the GI50 in assay [1] is less than 0.05 µM; in assay [2], 0.05 to 0.5 µM; in assay [3], 0.5 to 2.5 µM.
For `COc1cc([C@@H]2c3ccc(O)cc3CC[C@@H]2c2ccc(F)cc2)ccc1N1CCN(CC2(O)CCN(c3ccc(C4=N[C@@H](C)c5nnc(C)n5-c5sc(C)c(C)c54)cc3)CC2)CC1` [III-255] the same measures were less than 0.05 µM, 0.05 to 0.5 µM and 0.5 to 2.5 µM.
With `Cc1sc2c(c1C)C(c1ccc(N3CCC(O)(CN4CCN(c5cc(F)c([C@@H]6c7ccc(O)cc7CC[C@@H]6c6ccc(F)cc6)cc5F)CC4)CC3)cc1)=N[C@@H](C)c1nnc(C)n1-2` [III-256], the GI50 was less than 0.05 µM in assay [1], less than 0.05 µM in assay [2] and 0.5 to 2.5 µM in assay [3].
For `Cc1sc2c(c1C)C(c1ccc(N3CCC(O)(CN4CCN(c5cc(F)c([C@H]6c7ccc(O)cc7CC[C@H]6c6ccc(F)cc6)cc5F)CC4)CC3)cc1)=N[C@@H](C)c1nnc(C)n1-2` [III-257], the GI50 in assay [1] is 0.05 to 0.5 µM; in assay [2], 0.05 to 0.5 µM; in assay [3], 0.5 to 2.5 µM.
Regarding `Cc1sc2c(c1C)C(c1ccc(N3CCC(O)(CN4CCN(c5ccc([C@H]6c7ccc(O)cc7CC[C@H]6c6ccc(F)cc6F)cc5)CC4)CC3)cc1)=N[C@@H](Cc1ncco1)c1nnc(C)n1-2` [III-258], the GI50 in assay [1], in assay [2] and in assay [3] was 0.05 to 0.5 µM in each case.
